In patent publication US6548540B2, “Method of treating cancer using dithiocarbamate derivatives” (Charlotte-Mecklenburg Hospital Authority, priority 1998, dated 2003):

Experiments:
Type in all cases: cell-based, human
AP-1 = assay: EMSA of treated cells, AP-1 DNA binding; conditions: disulfiram plus copper; 24 hours; data not shown
Procedure: Nuclear protein was isolated and DNA binding reactions were performed as previously described in detail (See, […], et al., “Dehydroepiandrosterone and analogs inhibit DNA binding of AP-1 and airway smooth muscle proliferation,” J. Pharmacol. Exper. Ther. 285:[…] (1998); T. Kennedy, et al., “Copper-dependent inflammation and nuclear factor-κB activation by particulate air pollution,” Am. J. Respir. Cell Mol. Biol. 19:366-378 (1998)). Monolayers were washed twice in cold DPBS and equilibrated 10 minutes on ice with 0.7 ml cold cytoplasmic extraction buffer, CEB (10 mM Tris, pH 7.9, 60 mM KCl, 1 mM EDTA, 1 mM DTT) with protease inhibitors, PI (1 mM Pefabloc, 50 μg/ml antipain, 1 μg/ml leupeptin, 1 μg/ml pepstatin, 40 μg/ml bestatin, 3 μg/ml E-64 and 100 μg/ml chymostatin). The detergent Nonidet P-40 (NP-40) was added to a final concentration of 0.1% and cells were dislodged with a cell scraper. Nuclei were pelleted by centrifugation and washed with CEB/PI. […]

[1] = test system: H82 small cell lung cancer cells; assay: Trypan blue cytotoxicity, H82; conditions: 0.625 μM disulfiram; 36 hours
Procedure: To assess for cytotoxicity, cells were plated at a density of 50,000 per well on 24 well plates and grown for 24 hours. Disulfiram was then added. After an additional 36 hours, medium was removed and replaced with DPBS containing 0.1% trypan blue. Cell death was assessed by counting the average number of trypan blue positive cells per 10×field in 5 random fields for 4 separate wells.

M1619 melanoma cells [2] = assay: Apoptosis by TdT 3'-OH fluorescein end-labeling of DNA fragments; conditions: 5 μM disulfiram; 15 hours
Procedure: To determine whether disulfiram induced apoptosis, cells grown to confluence on 35 mm Petri dishes or on glass slides were treated with disulfiram or DMSO as vehicle. Apoptosis was studied by terminal deoxynucleotidyl transferase (TdT) dependent 3′-OH fluorescein end-labeling of DNA fragments, using a Fluorescein-FragEL™ DNA fragmentation detection kit (Oncogene Research Products, Cambridge, Mass.). Apoptosis was also studied by visually assessing endonuclease dependent DNA fragmentation on ethidium bromide-stained agarose gels.
In FIG. 5A, M1619 melanoma cells treated with DMSO vehicle. In FIG. 5B, M1619 melanoma cells treated with 5 μM disulfiram. […] Cells were grown to confluence on 35 mm Petri dishes or on glass slides and treated for 15 hours with disulfiram or DMSO as vehicle. Apoptosis was studied by terminal deoxynucleotidyl transferase (TdT) dependent 3′-OH fluorescein end-labeling of DNA fragments, using a Fluorescein-FragEL™ DNA fragmentation detection kit (Oncogene Research Products, Cambridge, Mass.).

M1619 melanoma cells [3] = assay: Intracellular copper by plasma emission spectroscopy; conditions: 6 hours, ng copper/ml of hydrolysate
Procedure: Finally, a number of dithiocarbamate effects on cells have been attributed to increasing the intracellular levels of copper ions. To further probe the role of copper in mediating cytotoxicity from disulfiram, cells were cultured with or without addition of the impermeate Cu^2+ chelator bathocuprioinedisulfonic acid (BCPS, 100 μM) added to medium to sequester Cu^2+ in the extracellular compartment. Cells were also treated 12 hours with various concentration of disulfiram (0.625 to 5.0 μM) and intracellular copper levels were measured as outlined below.
Cells were cultured in 12-well plastic tissue culture plates at an initial plating density of 50,000 cells/well, grown to confluence and treated with disulfiram or vehicle DMSO as outlined above. Media was removed and cells were washed twice with DPBS. Cells were then scraped into 1.0 ml of 3N HCl/10.0% trichloroacetic acid and hydrolyzed at 70° C. for 16 hours. The hydrolysate was centrifuged at 600 gm for 10 minutes to remove debris and copper was measured in the supernatant using inductively coupled plasma emission spectroscopy (Model P30, Perkin Elmer, Norwalk, Conn.) at wavelengths of […] and 224.700 nm. To minimize metal contamination, plasticware rather than glassware was used in these experiments, and double-distilled, deionized water was used for all aqueous media. Results are reported as ng copper/ml of hydrolysate.
M1619 melanoma cells were cultured at a density of 50,000 cells/well in 24 well plates in the presence of 10% FBS and grown to confluence. Disulfiram or DMSO vehicle (5 μl/ml) was added at the concentrations indicated, and cells were incubated an additional 6 hours. Supernatant was removed from cells and monolayers were washed twice with DPBS. Cells were scraped into 1.0 ml 3 N HCL/10% trichloroacetic acid and hydrolyzed at 70° C. for 16 hours. After centrifugation at 600 g×10 min, copper was measured using inductively coupled plasma emission spectroscopy at wavelengths of 324.754 and 224.700 nm. Replicates of four are reported. To minimize metal contamination, plastic ware rather than glass was used in experiments, and double-distilled, deionized water was used for all aqueous media. ^Ap<0.01 compared to DMSO control; ^Bp<0.001 compared to DMSO control.

CCN(CC)C(=S)SSC(=S)N(CC)CC [Disulfiram, tetraethylthiuram disulfide] was tested, and the “DNA binding of AP-1” value (AP-1) was “inhibited”, the “trypan blue positive cells” value [1] was 93±12 trypan blue positive cells per well and the “3'-OH fluorescein end-labeling of DNA fragments (apoptosis)” value (M1619 melanoma cells [2]) was “markedly increases”. For the same molecule, the “Intracellular Copper” value (M1619 melanoma cells [3]; FBS + 0.625 μM DS) was 76 ± 11 ng/mL, the “Intracellular Copper” value (M1619 melanoma cells [3]; FBS + 1.25 μM DS) was 102 ± 5^A ng/ml and the “Intracellular Copper” value (M1619 melanoma cells [3]; FBS + 2.5 μM DS) was 160 ± 17^A ng/ml. For the same molecule, the “Intracellular Copper” value (M1619 melanoma cells [3]; FBS + 5.0 μM DS) was 195 ± 3^B ng/ml.
